# pIC50: −log10 of the molar value. Where two headings read alike, the source gives them in different places.
# Assays:
# Type in all cases: cell-based, human
# MYB = experiment: Splicing RT-qPCR assay, MYB mRNA canonical junction (CJ) and alternative junction (AJ); conditions: for AC50: increase in AJ mRNA
# Method in brief: (§1)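 A673 or K562 cells treated 24 h at 37 °C with 11-point 3-fold dilutions, top 10 uM, DMSO ≤0.25%. Lysates read by RT-qPCR for CJ and AJ isoforms, normalized to GAPDH, GUSB or PPIA; ΔΔCt vs DMSO converted to RQ, then percent response.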
# HTT = experiment: Splicing RT-qPCR assay, HTT mRNA canonical junction (CJ) and alternative junction (AJ); conditions: for AC50: increase in AJ mRNA
# Method in brief: as §1
# Target C [1] = experiment: Splicing RT-qPCR panel, Target C canonical junction (CJ) mRNA; conditions: read-out: Target C IC50 (decrease in CJ mRNA levels)
# Method in brief: as §1
# Target C [2] = experiment: HiBiT protein abundance assay, Target C; conditions: modified K562 cells
# Method in brief: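 Knock-in HiBiT clones, 10000/well; 10-pt 3-fold titration, top 10 μM final; DMSO ≤0.25%; 24 h, 37 °C, 5% CO2. Lytic HiBiT luminescence readout. 4PL fit, IC50 = concentration giving 50% of untreated abundance.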
# [3] = Homo sapiens, 24 h, decrease in CJ mRNA, A673 or K562 cells, 24 hours treatment, RT-qPCR, read-out: MYB CJ IC50
# [4] = Homo sapiens, 24 h, A673 or K562 cells, 24 hours treatment, RT-qPCR
# [5] = Homo sapiens, RT-qPCR panel, canonical junction mRNA, compound concentration having 50% response in CJ decrease, read-out: MYB IC50 (decrease in CJ mRNA levels)
# [6] = Homo sapiens, RT-qPCR panel, canonical junction mRNA, compound concentration having 50% response in CJ decrease, read-out: HTT IC50 (decrease in CJ mRNA levels)
# [7] = Homo sapiens, RT-qPCR panel, canonical junction mRNA, compound concentration having 50% response in CJ decrease
# [8] = Homo sapiens, K562, 24 h, Table 13A
# [9] = RT-qPCR panel, canonical junction mRNA, compound concentration having 50% response in CJ decrease, read-out: MYB IC50 (decrease in CJ mRNA levels)
# [10] = decrease in CJ mRNA, A673 or K562 cells, 24 hours treatment, RT-qPCR, read-out: MYB CJ IC50
# [11] = RT-qPCR panel, canonical junction mRNA, compound concentration having 50% response in CJ decrease, read-out: HTT IC50 (decrease in CJ mRNA levels)
# [12] = RT-qPCR panel, canonical junction mRNA, compound concentration having 50% response in CJ decrease
# [13] = Homo sapiens, gene panel, CJ qPCR, protocol of Example 142, read-out: MYB IC50 (decrease in CJ mRNA levels)
# [14] = Homo sapiens, gene panel, CJ qPCR, protocol of Example 142, read-out: HTT IC50 (decrease in CJ mRNA levels)
# [15] = Homo sapiens, gene panel, CJ qPCR, protocol of Example 142
# [16] = Homo sapiens, K562, 24 h, Table 13B
SMILES,pIC50 (MYB; [5]),pIC50 (HTT; [6]),pIC50 (Target C [1]; [7]),pIC50 (Target C [2]; [8]),pIC50 (MYB; [13]),pIC50 (HTT; [14]),pIC50 (Target C [1]; [15]),pIC50 (Target C [2]; [16]),also measured
Fc1cc(-c2ccc(O[C@@H]3C[C@H]4CC[C@@H](C3)N4)nn2)c2sncc2c1-c1cn[nH]c1 [Compound 327],> 7.00,> 7.00,> 7.00,> 7.00,–,–,–,–,pIC50 (MYB; [3]): > 7.00; AC50 (MYB; [4]): < 0.1 µM; AC50 (HTT; [4]): < 0.1 µM
COc1cc(-c2ccc(-c3ccc(N(C)C4CC(C)(C)NC(C)(C)C4)nn3)c3scnc23)cnn1 [Compound 330],6.00 to 7.00,> 7.00,> 7.00,> 7.00,–,–,–,–,pIC50 (MYB; [3]): 6.00 to 7.00; AC50 (MYB; [4]): 0.1 to 1 µM; AC50 (HTT; [4]): < 0.1 µM
CC(C)(C)NC1CCN(c2ccc(-c3ccc(-c4cn[nH]c4)c4ncsc34)nn2)C1 (stereo not drawn) [Compound 336],–,–,–,–,–,–,–,–,"pIC50 (MYB; [9]): 6.00 to 7.00; pIC50 (MYB; [10]): 6.00 to 7.00; pIC50 (HTT; [11]): 6.00 to 7.00; pIC50 (HTT; decrease in CJ mRNA, A673 or K562 cells, 24 hours treatment, RT-qPCR, read-out: HTT CJ IC50): 6.00 to 7.00; pIC50 (Target C [1]; [12]): < 5.00; pIC50 (Target C [2]; Table 13A, 24 hours): 6.00 to 7.00"
c1nc2c(-c3cn[nH]c3)ccc(-c3ccc(N4CCC(NC5CC5)C4)nn3)c2s1 (stereo not drawn) [Compound 337],< 5.00,< 5.00,< 5.00,< 5.00,–,–,–,–,"pIC50 (MYB; [3]): < 5.00; AC50 (MYB; [4]): > 10 µM; pIC50 (HTT; Homo sapiens, 24 h, decrease in CJ mRNA, A673 or K562 cells, 24 hours treatment, RT-qPCR, read-out: HTT CJ IC50): < 5.00; AC50 (HTT; [4]): 1 to 10 µM"
Fc1cc(-c2ccc(N[C@@H]3C[C@H]4CC[C@@H](C3)N4)nn2)c2scnc2c1-c1cn[nH]c1 [Compound 339],> 7.00,> 7.00,> 7.00,> 7.00,–,–,–,–,pIC50 (MYB; [3]): > 7.00; AC50 (MYB; [4]): < 0.1 µM; AC50 (HTT; [4]): < 0.1 µM
"Cc1ncc(-c2ccc(-c3ccc(O[C@@H]4C[C@H]5CC[C@@H](C4)N5)nn3)c3scnc23)s1 [Compound 348, 7-{6-[(exo)-8-azabicyclo[3.2.1]octan-3-yloxy]pyridazin-3-yl}-4-(2-methyl-1,3-thiazol-5-yl)-1,3-benzothiazole]",6.00 to 7.00,> 7.00,6.00 to 7.00,6.00 to 7.00,–,–,–,–,pIC50 (MYB; [3]): 6.00 to 7.00; AC50 (MYB; [4]): 0.1 to 1 µM; AC50 (HTT; [4]): 0.1 to 1 µM
"CN(c1ccc(-c2ccc(-c3cn[nH]c3)c3ncsc23)nn1)[C@H]1C[C@H]2COC[C@@H](C1)N2 [Compound 356, (endo)-N-methyl-N-{6-[4-(1H-pyrazol-4-yl)-1,3-benzothiazol-7-yl]pyridazin-3-yl}-3-oxa-9-azabicyclo[3.3.1]nonan-7-amine]",–,–,–,–,–,–,–,–,"pIC50 (MYB; [9]): 6.00 to 7.00; pIC50 (MYB; [10]): 6.00 to 7.00; pIC50 (HTT; [11]): > 7.00; pIC50 (Target C [1]; [12]): > 7.00; pIC50 (Target C [2]; Table 13A, 24 hours): > 7.00"
COc1cc(-c2ccc(-c3ccc(O[C@@H]4C[C@H]5CC[C@@H](C4)N5)nn3)c3scnc23)cnn1 [Compound 362],6.00 to 7.00,> 7.00,6.00 to 7.00,> 7.00,–,–,–,–,pIC50 (MYB; [3]): 6.00 to 7.00; AC50 (MYB; [4]): < 0.1 µM; AC50 (HTT; [4]): < 0.1 µM
Fc1ccn(-c2ccc(-c3ccc(O[C@@H]4C[C@H]5CC[C@@H](C4)N5)nn3)c3scnc23)n1 [Compound 363],6.00 to 7.00,> 7.00,6.00 to 7.00,6.00 to 7.00,–,–,–,–,pIC50 (MYB; [3]): 6.00 to 7.00; AC50 (MYB; [4]): 0.1 to 1 µM; AC50 (HTT; [4]): 0.1 to 1 µM
CN(c1ncc(-c2ccc(-n3cccn3)c3[nH]ncc23)nn1)[C@@H]1C[C@H]2CCC[C@@H](C1)N2 [Compound 551],6.00 to 7.00,> 7.00,> 7.00,> 7.00,–,–,–,–,–
c1cnn(-c2ccc(-c3cnc(N[C@@H]4C[C@H]5CC[C@@H](C4)N5)nn3)c3cn[nH]c23)c1 [Compound 556],6.00 to 7.00,> 7.00,6.00 to 7.00,> 7.00,–,–,–,–,–
c1cnn(-c2ccc(-c3cnc(N[C@@H]4C[C@H]5CCC[C@@H](C4)N5)nn3)c3cn[nH]c23)c1 [Compound 561],6.00 to 7.00,> 7.00,6.00 to 7.00,> 7.00,–,–,–,–,–
CC(C)(C)C1CN(c2ncc(-c3ccc(-n4cccn4)c4[nH]ncc34)nn2)CCN1 (stereo not drawn) [Compound 572],6.00 to 7.00,> 7.00,6.00 to 7.00,6.00 to 7.00,–,–,–,–,–
CN(c1ncc(-c2ccc(-n3cncn3)c3[nH]ncc23)nn1)[C@@H]1C[C@H]2CCC[C@@H](C1)N2 [Compound 574],6.00 to 7.00,> 7.00,> 7.00,> 7.00,–,–,–,–,–
CN(c1ncc(-c2ccc(-n3ccnn3)c3[nH]ncc23)nn1)[C@@H]1C[C@H]2CCC[C@@H](C1)N2 [Compound 576],5.00 to 6.00,> 7.00,6.00 to 7.00,6.00 to 7.00,–,–,–,–,–
Cc1ncc(-c2ccc(-c3cnc(N(C)[C@@H]4C[C@H]5CCC[C@@H](C4)N5)nn3)c3scnc23)s1 [Compound 578],6.00 to 7.00,> 7.00,6.00 to 7.00,> 7.00,–,–,–,–,–

SMILES,pIC50 (MYB; [5]),pIC50 (HTT; [6]),pIC50 (Target C [1]; [7]),pIC50 (Target C [2]; [8]),pIC50 (MYB; [13]),pIC50 (HTT; [14]),pIC50 (Target C [1]; [15]),pIC50 (Target C [2]; [16]),also measured
Cc1nc(-c2ccc(-c3cnc(N(C)[C@@H]4C[C@H]5CCC[C@@H](C4)N5)nn3)c3scnc23)cs1 [Compound 579],5.00 to 6.00,6.00 to 7.00,6.00 to 7.00,6.00 to 7.00,–,–,–,–,–
Cc1cc(-c2ccc(-c3cnc(N(C)[C@@H]4C[C@H]5CCC[C@@H](C4)N5)nn3)c3scnc23)sn1 [Compound 580],6.00 to 7.00,> 7.00,> 7.00,> 7.00,–,–,–,–,–
CC(C)(C)[C@H]1CN(c2ncc(-c3ccc(-n4cccn4)c4[nH]ncc34)nn2)CCN1 [Compound 581],6.00 to 7.00,> 7.00,6.00 to 7.00,> 7.00,–,–,–,–,–
COc1nc(-c2ccc(N(C)[C@@H]3C[C@H]4CC[C@@H](C3)N4)nn2)ccc1-c1cn[nH]c1 [Compound 906],–,–,–,–,6.00 to 7.00,> 7.00,> 7.00,> 7.00,–
CN(c1ccc(-c2ccc(-c3cn[nH]c3)cn2)nn1)[C@@H]1C[C@H]2CC[C@@H](C1)N2 [Compound 915],–,–,–,–,6.00 to 7.00,6.00 to 7.00,5.00 to 6.00,5.00 to 6.00,–
COc1nc(-c2ccc(OC3CC(C)(C)NC(C)(C)C3)nn2)ccc1-c1cn[nH]c1 [Compound 917],–,–,–,–,6.00 to 7.00,6.00 to 7.00,6.00 to 7.00,> 7.00,–
COc1nc(-c2ccc(OC3CC(C)(C)NC(C)(C)C3)nn2)ccc1-c1cnn(C)c1 [Compound 918],–,–,–,–,6.00 to 7.00,6.00 to 7.00,6.00 to 7.00,6.00 to 7.00,–
COc1nc(-c2ccc(N(C)C3CC(C)(C)NC(C)(C)C3)nn2)ccc1-c1cn[nH]c1 [Compound 919],–,–,–,–,6.00 to 7.00,> 7.00,6.00 to 7.00,> 7.00,–
COc1nc(-c2ccc(N(C)C3CC(C)(C)NC(C)(C)C3)nn2)ccc1-c1cnn(C)c1 [Compound 920],–,–,–,–,6.00 to 7.00,6.00 to 7.00,6.00 to 7.00,6.00 to 7.00,–
CN(c1ccc(-c2ccc(-c3cn[nH]c3)c(F)n2)nn1)[C@@H]1C[C@H]2CC[C@@H](C1)N2 [Compound 922],–,–,–,–,6.00 to 7.00,> 7.00,6.00 to 7.00,> 7.00,–
CN(c1ccc(-c2ccc(-c3cn[nH]c3)c(C#N)n2)nn1)[C@@H]1C[C@H]2CC[C@@H](C1)N2 [Compound 930],–,–,–,–,6.00 to 7.00,> 7.00,6.00 to 7.00,> 7.00,–
COc1nc(-c2ccc(N(C)[C@@H]3C[C@H]4CC[C@@H](C3)N4)nn2)cc(F)c1-c1cn[nH]c1 [Compound 931],–,–,–,–,> 7.00,> 7.00,> 7.00,> 7.00,–
CN(c1ccc(-c2ccc(-c3cn[nH]c3)c(OC3CC3)n2)nn1)[C@@H]1C[C@H]2CC[C@@H](C1)N2 [Compound 939],–,–,–,–,6.00 to 7.00,> 7.00,6.00 to 7.00,> 7.00,–
COc1cc(-c2ccc(-c3ccc(N(C)[C@@H]4C[C@H]5CC[C@@H](C4)N5)nn3)nc2OC)ncn1 [Compound 954],–,–,–,–,5.00 to 6.00,5.00 to 6.00,5.00 to 6.00,5.00 to 6.00,–
CN(c1ccc(-c2ccc(-c3cn[nH]c3)c(OC(F)F)n2)nn1)[C@@H]1C[C@H]2CC[C@@H](C1)N2 [Compound 955],–,–,–,–,6.00 to 7.00,> 7.00,6.00 to 7.00,> 7.00,–
COc1nc(-c2ccc(N3CCC(NC(C)(C)C)C3)nn2)ccc1-c1cn[nH]c1 (stereo not drawn) [Compound 956],–,–,–,–,6.00 to 7.00,> 7.00,6.00 to 7.00,6.00 to 7.00,–
